Reference: paper PMC8467577, “Infection Responsive Smart Delivery of Antibiotics Using Recombinant Spider Silk Nanospheres” (Pharmaceutics, 2021)
Peptide text beside a SMILES is read from it.

Experiments:
human thrombin = human thrombin (Homo sapiens, UniProt P00734)
Description: (§1) The thrombin-sensitive peptide, […] (TSP), was custom synthesized by standard Fmoc synthesis (WatsonBio, Houston, TX, USA). The susceptibility of the peptide to the bacterial thrombin-like enzyme was assessed by exposing the peptide to media from an actively growing S. aureus culture. Enzymatic activity of the media was initially determined by titrating culture exudate into a fluorogenic thrombin substrate, Boc-Val-Pro-Arg-MCA (Sigma Aldrich, St. Louis, MO, USA). TSP was then exposed to the media with varying enzymatic activity and incubated at 37 °C with shaking. The sample was analyzed with HPLC (mobile phase 0.1% TFA/water (A) 0.1% TFA/Acetonitrile (B), under a gradient flow of 5–90% at a flow rate of 1.0 mL/min) every 12 h through 48 h. Protein was detected at a wavelength of 215 nm. A similar experiment was conducted with the recombinant spider silk to check the susceptibility of the silk protein to the bacterial enzyme.
(§2) The susceptibility of the TSP to the bacterial thrombin-like enzyme was assessed by exposing the peptide to media from an actively growing S. aureus culture. Enzymatic activity of the bacterial culture was determined by a fluorogenic thrombin substrate, Boc-Val-Pro-Arg-MCA. TSP was initially titrated into media with varying enzymatic activity to determine the amount of enzyme required to cleave the peptide.

[1] = water control, HPLC
Description: as §1, §2

[2] = test system: bacterial thrombin-like enzyme (media from an actively growing S. aureus culture); test: Susceptibility to spent S. aureus culture media (HPLC); settings: for degradation of silk protein in S. aureus bacterial media: 48 h, different concentrations of spent bacterial media vs control without media, 37 °C, HPLC area under the curve
Description: as §1

[3] = Exposure to human serum (HPLC); format: in vitro ADME
Excerpt: Frequent and inappropriate usage of antibiotics has changed the natural evolution of bacteria by reducing susceptibility and increasing resistance towards antibacterial agents. New resistance mechanisms evolved in the response to host defenses and pharmaceutical interventions are threatening our ability to treat common infections, resulting in increased mortality. In the face of this rising epidemic, antibiotic drug discovery, which has long been overlooked by big pharma, is reaching a critical low. Thus, the development of an infection-responsive drug delivery system, which may mitigate multidrug resistance and preserve the lifetime of our current antibiotic arsenal, has garnered the attention of both popular science and funding agencies. The present work describes the development of a thrombin-sensitive linker embedded into a recombinant spider silk copolymer to create a nanosphere drug delivery vehicle. […] A thrombin sensitive peptide (TSP) was synthesized, and the thrombin cleavage sensitivity was determined by HPLC. […] Subsequently, the peptide was coupled with a silk copolymer via EDC-NHS chemistry and formulated into nanospheres encapsulating antibiotic vancomycin. These nanospheres were evaluated for in vitro infection-responsive drug release and antimicrobial activity. Finally, the drug responsive nanospheres were assessed for efficacy in an in vivo septic arthritis model. […]

[4] = test system: S. aureus infected knee joint; test: In vivo septic arthritis model, H&E histopathology of knee joint; set-up: species or system Sprague Dawley rats; settings: H&E staining, 48 h after local treatment
Description: After establishing the septic arthritis disease model, treatment with either free drug, drug-loaded conjugate particles, or drug-loaded silk particles was given on day two after bacterial inoculation. Rats were divided into three treatment groups (Table 1). The first group received drug-loaded (14 mg/kg) conjugate nanoparticles in the infected knee locally delivered into the synovial joint space while the uninfected knee was injected with unloaded conjugate nanoparticles. The second group received drug-loaded plain silk SX2 particles into the infected knee while the uninfected knee was injected with unloaded SX2 particles. The third group received a free drug into the infected knee joint and sterile PBS into the uninfected knee. The treatment was continued for 48 h after which rats were euthanized and limbs were collected for histopathological analysis. Before euthanasia, synovial fluid was collected from the joint space of the infected knee and the control knee of all the groups and cultured on LB agar plates overnight. After incubation overnight, the number of colonies were counted.
Histopathology was performed on the infected and uninfected bones by hematoxylin and eosin (H and E) stain. Initially the bones were harvested from the rat after euthanasia and fixed in 10% neutral buffered formalin for 72 h. […]

S. aureus = settings: standard ZOI values of the free drug for SA; ref not given; cited from earlier work
Description: To explore the potential efficacy of this delivery system for the treatment of S. aureus septic arthritis, the antibacterial effect of Vancomycin-loaded nanospheres was first tested in vitro on Staphylococcus aureus. […] Once the MIC was established, antibacterial activity was tested by a Kirby Bauer Zone of Inhibition assay.

[5] = Critical aggregation concentration by pyrene fluorescence; format: physicochemical; settings: pyrene fluorescence I1/I3 (379/393 nm), phosphate buffer, sonicated 5 min, incubated 1 h
Description: The critical aggregation concentration (CAC) of silk was determined by the pyrene fluorescence method. Briefly, 20 µL of 24 µg/mL (working concentration) of a pyrene solution was prepared in acetone and acetone was evaporated. Later, 980 µL of silk peptide in the phosphate buffer at different concentrations was then added to the pyrene, and the mixture was sonicated for 5 min and incubated for 1 h. The fluorescence spectra of the samples were recorded at an excitation of 336 nm and emission of 360–450 nm wavelengths. Intensity peaks at 379 nm (I1) and 393 nm (I3) were recorded. The ratio of I1/I3 was plotted against log concentration, and the point where a sharp inclination in the graph was noted as the CAC.

thrombin = settings: releasing gentamicin linked to a polyvinyl alcohol (PVA) support matrix; cited from earlier work
Excerpt: Strategies utilizing microenvironments unique to tissues and disease states as a molecular cue to activate drug release has gained widespread attention in the treatment of various diseases like cancer, diabetes, and bacterial infections as it increases drug stability and therapeutic efficacy while decreasing toxic side effects at the same time. Several enzymes including a thrombin-like enzyme in S. aureus, myeloperoxidase in Candida, and esterases in uropathogens were reported to be elevated during infection, whereas virulence factors for certain bacteria like b ...

C[C@H](NC(=O)[C@@H]1CCCN1C(=O)[C@H](Cc1ccccc1)NC(=O)CNC(=O)[C@H](CCCNC(=N)N)NC(=O)[C@@H]1CCCN1C(=O)[C@H](CC(=O)O)NC(=O)[C@H](Cc1ccccc1)NC(=O)CNC(=O)[C@H](CCCCN)NC(=O)[C@H](CC(=O)O)NC(=O)[C@H](CC(=O)O)NC(=O)[C@H](CC(=O)O)NC(=O)[C@H](CC(=O)O)NC(=O)[C@H](Cc1c[nH]cn1)NC(=O)[C@H](Cc1c[nH]cn1)NC(=O)[C@H](Cc1c[nH]cn1)NC(=O)[C@H](Cc1c[nH]cn1)NC(=O)[C@H](Cc1c[nH]cn1)NC(=O)[C@@H](N)Cc1c[nH]cn1)C(=O)NCC(=O)NCC(=O)O [TSP] (H-HHHHHHDDDDKGFDPRGFPAGG-OH)
degradation in human thrombin after 48 h (human thrombin): minimal degradation | stability to human thrombin (human thrombin): still intact | stability to human thrombin after 24 h (human thrombin): intact | stability in water after 24 h ([1]; 24 h exposure, n = 3): intact | stability in water ([1]; data not shown): still intact | cleavage on incubation with S. aureus exudate ([2]; S. aureus exudate, HPLC): cleaved | time to cleavage of the peptide in S. aureus bacterial media ([2]; media from actively growing S. aureus culture, enzymatic activity 23 a.u., 37 °C with shaking, HPLC 215 nm every 12 h through 48 h): ≤ 12 h | cleavage on exposure to human serum [3]: no cleavage

CN[C@H](CC(C)C)C(=O)N[C@H]1C(=O)N[C@@H](CC(N)=O)C(=O)N[C@H]2C(=O)N[C@H]3C(=O)N[C@H](C(=O)N[C@H](C(=O)O)c4cc(O)cc(O)c4-c4cc3ccc4O)[C@H](O)c3ccc(c(Cl)c3)Oc3cc2cc(c3O[C@@H]2O[C@H](CO)[C@@H](O)[C@H](O)[C@H]2O[C@H]2C[C@](C)(N)[C@H](O)[C@H](C)O2)Oc2ccc(cc2Cl)[C@H]1O [vancomycin-free drug, vancomycin]
histopathological findings in infected joint [4]: similar, if not more inflamed, appearance | standard ZOI value (S. aureus): > 12 mm

(GGYGPGQQGPGGYGPGQQGPSGPGSAAAAAAAA)2 [silk]
critical aggregation concentration (CAC) [5]: 1.2 mg/mL | degradation of silk protein in S. aureus bacterial media ([2]; listed as silk peptide): stability of the peptide even after 48 h | degradation of silk protein in S. aureus bacterial media ([2]; listed as silk protein): no significant difference in the degradation

GFDPRGFPAGG
time to complete cleavage (thrombin): ≤ 15 min
